pIC50: −log10 of the molar value. ≈ marks a conversion by molar mass, not a printed value.
How the values were obtained:
[1] = Clearance in Sprague-Dawley rat at 3 mg/kg, iv and 10 mg/kg, po; format: ADME, organism-based; conditions: in vivo
[2] = Oral bioavailability in Sprague-Dawley rat at 10 mg/kg; format: ADME, organism-based; conditions: in vivo
[3] = Aqueous solubility of the compound at pH 6.6; format: physicochemical; conditions: aqueous solution
Rattus norvegicus = assay: Dose normalized AUC in Sprague-Dawley rat measured per mg of plasma at 3 mg/kg, iv and 10 mg/kg, po; format: ADME, organism-based; conditions: in vivo
[4] = molecular target: T1, P-selectin glycoprotein ligand 1 (Homo sapiens) (UniProt Q14242); assay: Inhibition of recombinant PSGL-1 at 250 uM by surface plasmon resonance assay
T1 sequence (whole entry): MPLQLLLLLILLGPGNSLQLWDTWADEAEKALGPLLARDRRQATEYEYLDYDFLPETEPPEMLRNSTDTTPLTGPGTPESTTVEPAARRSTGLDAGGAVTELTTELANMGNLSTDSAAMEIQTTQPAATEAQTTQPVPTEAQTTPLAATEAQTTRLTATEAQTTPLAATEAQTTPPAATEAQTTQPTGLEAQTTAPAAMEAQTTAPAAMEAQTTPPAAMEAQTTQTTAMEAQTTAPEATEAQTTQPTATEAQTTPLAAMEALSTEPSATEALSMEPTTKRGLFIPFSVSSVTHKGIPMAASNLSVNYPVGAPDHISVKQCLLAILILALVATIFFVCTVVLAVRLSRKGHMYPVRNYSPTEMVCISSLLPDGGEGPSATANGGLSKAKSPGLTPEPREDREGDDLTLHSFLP

CYP2C9 = CYP2C9 (Homo sapiens, UniProt P11712); assay: Inhibition of CYP2C9 at 3 uM; format: ADME
[5] = molecular target: T2, P-selectin glycoprotein ligand 1 (Homo sapiens, UniProt Q14242); assay: Inhibition of recombinant PSGL-1 by surface plasmon resonance assay
T2 sequence (Q14242 whole entry): T1 sequence (whole entry)

[6] = Half life in human liver microsomes; format: ADME, Microsome
[7] = Half life in Beagle dog liver microsomes; format: ADME, Canis lupus familiaris, Microsome
[8] = Clearance in C57B6 mouse at 2 mg/kg, iv and 10 mg/kg, po; format: ADME, organism-based; conditions: in vivo
[9] = Half life in C57B6 mouse liver microsomes; format: ADME, Microsome
[10] = Aqueous solubility of the compound at pH 7.4; format: physicochemical; conditions: buffer
[11] = Aqueous solubility of the compound at pH 4.5; format: physicochemical; conditions: aqueous solution
Cynomolgus monkey = assay: Dose normalized AUC in cynomolgus monkey measured per mg of plasma at 5 mg/kg, iv and po; format: ADME, organism-based, Macaca fascicularis; set-up: dose 5 mg/kg, route oral; conditions: in vivo
[12] = Oral bioavailability in Beagle dog at 10 mg/kg; format: ADME, organism-based, Canis lupus familiaris; conditions: in vivo
Canis familiaris = assay: Dose normalized AUC in Beagle dog measured per mg of plasma at 2 mg/kg, iv and 10 mg/kg, po; format: ADME, organism-based, Canis lupus familiaris; conditions: in vivo
[13] = Oral bioavailability in cynomolgus monkey at 5 mg/kg; format: ADME, organism-based, Macaca fascicularis; conditions: in vivo
[14] = Clearance in Beagle dog at 2 mg/kg, iv and 10 mg/kg, po; format: ADME, organism-based, Canis lupus familiaris; conditions: in vivo
[15] = Half life in cynomolgus monkey liver microsomes; format: ADME, Macaca fascicularis, Microsome
[16] = Aqueous solubility of the compound at pH 9; format: physicochemical; conditions: buffer
[17] = Aqueous solubility of the compound at pH 1; format: physicochemical; conditions: aqueous solution
[18] = Oral bioavailability in C57B6 mouse at 10 mg/kg; format: ADME, organism-based; conditions: in vivo
Mus musculus = assay: Dose normalized AUC in C57B6 mouse measured per mg of plasma at 2 mg/kg, iv and 10 mg/kg, po; format: ADME, organism-based; conditions: in vivo
[19] = Half life in Sprague-Dawley rat liver microsomes; format: ADME, Microsome

Sequence of CYP2C9 (P11712 whole entry): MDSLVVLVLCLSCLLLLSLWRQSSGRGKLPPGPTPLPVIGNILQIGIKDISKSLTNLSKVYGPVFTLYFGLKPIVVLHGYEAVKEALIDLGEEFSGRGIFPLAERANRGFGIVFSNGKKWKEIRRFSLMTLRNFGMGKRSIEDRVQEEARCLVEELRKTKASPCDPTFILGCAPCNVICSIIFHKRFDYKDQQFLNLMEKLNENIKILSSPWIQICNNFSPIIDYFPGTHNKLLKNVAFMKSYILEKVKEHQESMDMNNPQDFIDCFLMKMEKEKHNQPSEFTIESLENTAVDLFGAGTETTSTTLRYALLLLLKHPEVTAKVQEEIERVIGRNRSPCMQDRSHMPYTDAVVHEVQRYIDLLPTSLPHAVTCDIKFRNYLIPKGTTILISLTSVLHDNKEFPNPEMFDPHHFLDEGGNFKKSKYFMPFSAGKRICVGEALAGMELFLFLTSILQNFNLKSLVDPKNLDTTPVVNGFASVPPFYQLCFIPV

clearance [1] | bioavailability [2] | solubility [3] | AUC (Rattus norvegicus) | inhibition [4] | SMILES | further results
9 mL/min/kg | 100% | 370 µg/mL (≈ 1070 µM) | 2663 ng·h/mL |  | CC(C)c1cccc2c(C(=O)O)c(O)c(C3(c4ccccc4)CC3)nc12 | 
 |  |  |  | 11% | Cc1ccc(C2(c3nc4c(C)cc(C)cc4c(C(=O)O)c3O)CC2)cc1 | inhibition at 3 µM (CYP2C9): 55%
 |  |  |  | < 10% | Cc1cc(C)c2nc(C3(c4ccc(F)cc4)CC3)c(O)c(C(=O)O)c2c1 | inhibition at 3 µM (CYP2C9): 55%
3.9 mL/min/kg | 45% |  | 1925 ng·h/mL |  | O=C(O)c1c(O)c(C2(c3ccccc3)CC2)nc2c3c(ccc12)CCCC3 | pIC50 [5]: 3.60
 |  | 1550 µg/mL (≈ 4290 µM) |  | 50% | CC(c1ccccc1)c1nc2c(C(F)(F)F)cccc2c(C(=O)O)c1O (stereo not given) | 
 |  |  |  | 40% | CCc1cc(C(F)(F)F)c2nc(C3(c4ccccc4)CC3)c(O)c(C(=O)O)c2c1 | inhibition at 3 µM (CYP2C9): 86%
9.4 mL/min/kg | 100% | 250 µg/mL (≈ 623 µM) | 2428 ng·h/mL |  | CCc1cccc2c(C(=O)O)c(O)c(C3(c4ccc(C(F)(F)F)cc4)CC3)nc12 | 
0.5 mL/min/kg | 39% | 2900 µg/mL (≈ 7410 µM) | 14282 ng·h/mL | 56% | O=C(O)c1c(O)c(C2(c3ccc(F)cc3)CC2)nc2c(C(F)(F)F)cccc12 | 
 |  | 30 µg/mL (≈ 77 µM) |  | 58% | CC(C)C(c1ccccc1)c1nc2c(C(F)(F)F)cccc2c(C(=O)O)c1O (stereo not given) | 
8.7 mL/min/kg | 65% | 2500 µg/mL (≈ 6840 µM) | 1263 ng·h/mL |  | CC(C)c1cccc2c(C(=O)O)c(O)c(C3(c4ccc(F)cc4)CC3)nc12 | 
 |  |  |  | 20% | Cc1cc(C)c2nc(C3(c4ccccc4)CC3)c(O)c(C(=O)O)c2c1 | inhibition at 3 µM (CYP2C9): 54%
 |  | 2100 µg/mL (≈ 5630 µM) |  | 44% | O=C(O)c1c(O)c(C2(c3ccccc3)CC2)nc2c(C(F)(F)F)cccc12 | 
 |  |  |  | 24% | Cc1ccc(C2(c3nc4c(C)c(C)ccc4c(C(=O)O)c3O)CC2)cc1 | inhibition at 3 µM (CYP2C9): 47%
11 mL/min/kg | 27% | < 10 µg/mL | 440 ng·h/mL |  | O=C(O)c1c(O)c(Cc2ccc(Cl)cc2)nc2c3c(ccc12)CCCC3 [PSI-697] | half-life [6]: > 60 min; half-life [7]: > 60 min; clearance [8]: 11.6 mL/min/kg; half-life [9]: 14 min; solubility [10]: 90 µg/mL (≈ 245 µM); solubility [11]: < 1 µg/mL; AUC (Cynomolgus monkey): 1202 ng·h/mL; bioavailability [12]: 58%; AUC (Canis familiaris): 11666 ng·h/mL; bioavailability [13]: 40%; clearance [14]: 0.9 mL/min/kg; half-life [15]: 44 min; solubility [16]: 75 µg/mL (≈ 204 µM); solubility [17]: < 1 µg/mL; bioavailability [18]: 100%; pIC50 [5]: 3.82; AUC (Mus musculus): 1510 ng·h/mL; half-life [19]: 2 min
 |  |  |  | 15% | O=C(O)c1c(O)c(C2(c3cccs3)CC2)nc2c(C(F)(F)F)cccc12 | 
 |  |  |  | 40% | Cc1cc(C(F)(F)F)c2nc(C3(c4ccccc4)CC3)c(O)c(C(=O)O)c2c1 | inhibition at 3 µM (CYP2C9): 87%
 |  |  |  | 7% | O=C(O)c1c(O)c(C2(c3ccsc3)CC2)nc2c(C(F)(F)F)cccc12 | 
2.4 mL/min/kg | 100% | 140 µg/mL (≈ 381 µM) | 13986 ng·h/mL |  | CCc1cccc2c(C(=O)O)c(O)c(C3(c4ccc(Cl)cc4)CC3)nc12 | 
 |  | 440 µg/mL (≈ 1150 µM) |  | 40% | O=C(O)c1c(O)c(Cc2ccc(Cl)cc2)nc2c(C(F)(F)F)cccc12 | 
 |  | 420 µg/mL (≈ 929 µM) |  | 64% | O=C(O)c1c(O)c(C2(c3ccc(Br)cc3)CC2)nc2c(C(F)(F)F)cccc12 | 
 |  | 300 µg/mL (≈ 736 µM) |  | 66% | O=C(O)c1c(O)c(C2(c3cccc(Cl)c3)CC2)nc2c(C(F)(F)F)cccc12 | 
 |  |  |  | < 10% | CC(C)C(c1ccc(Cl)cc1)c1nc2c(C(F)(F)F)cccc2c(C(=O)O)c1O (stereo not given) | 
 |  |  |  | 0% | O=C(O)c1c(O)c(C2(c3ccc(Cl)cc3)CCC2)nc2c(C(F)(F)F)cccc12 | 

Source: ChEMBL document CHEMBL1212936, “Discovery of 2-[1-(4-chlorophenyl)cyclopropyl]-3-hydroxy-8-(trifluoromethyl)quinoline-4-carboxylic acid (PSI-421), a P-selectin inhibitor with improved pharmacokinetic properties and oral efficacy in models of vascular injury” (J Med Chem, 2010)
